System: 1496 clinical isolates of E. coli
Assay: Phenotypic antibiotic susceptibility testing, MicroScan WalkAway plus System, Neg MIC 45 panel
Type: cell-based
Conditions: for Measured Phenotype Susceptible (%) / Measured Phenotype Resistant (%): share of the 1496 E. coli isolates; for Measured Phenotype Resistant (%): resistant or intermediate combined as resistant; for Phenotype of the E. coli isolates in words: 1496 E. coli isolates
Description: Phenotypic antibiotic susceptibility testing was performed and an antibiotic response of resistant, intermediate or susceptible was assigned to each E. coli isolate per antibiotic based on minimal inhibitory concentrations as described in the MicroScan product insert. Phenotypic antibiotic susceptibility testing was performed on the 1496 E. coli isolates using the MicroScan WalkAway plus System and the Neg MIC 45 panel (P/N B1017-424) which covers 25 antibiotics. Cryopreserved isolates were sub-cultured twice on blood agar plates prior to antibiotic susceptibility testing. The MicroScan instrument was used to assign an antibiotic response of resistant, intermediate or susceptible for each isolate per antibiotic based on minimal inhibitory concentrations as described in the MicroScan product insert. Assignments of resistant or intermediate were combined and reported as resistant in this example. Assignments of susceptible are reported as such in this example.

Molecule | Measured Phenotype Susceptible (%) | Measured Phenotype Resistant (%) | Phenotype of the E. coli isolates in words
Amoxicillin/K Clavulanate | 43 | 57 | –
C[C@@H](O)[C@H]1C(=O)N2C(C(=O)O)=C(S[C@@H]3CN[C@H](C(=O)Nc4cccc(C(=O)O)c4)C3)[C@H](C)[C@H]12 [Ertapenem] | 98 | 4 | the vast majority of isolates exhibited phenotypic susceptibility
CN(C)[C@@H]1C(O)=C(C(N)=O)C(=O)[C@@]2(O)C(O)=C3C(=O)c4c(O)cccc4[C@@](C)(O)[C@H]3C[C@@H]12 [Tetracycline] | 32 | 68 | –
CO/N=C(\C(=O)N[C@@H]1C(=O)N2C(C(=O)O)=C(COC(C)=O)CS[C@H]12)c1csc(N)n1 [Cefotaxime] | 9 | 91 | –
Ticarcillin/K Clavulanate | 56 | 44 | –
Cc1nnc(SCC2=C(C(=O)O)N3C(=O)[C@@H](NC(=O)Cn4cnnn4)[C@H]3SC2)s1 [Cefazolin] | 5 | 95 | the vast majority of isolates exhibited phenotypic resistance
NCC[C@H](O)C(=O)N[C@@H]1C[C@H](N)[C@@H](O[C@H]2O[C@H](CN)[C@@H](O)[C@H](O)[C@H]2O)[C@H](O)[C@H]1O[C@H]1O[C@H](CO)[C@@H](O)[C@H](N)[C@H]1O [Amikacin] | 94 | 6 | the vast majority of isolates exhibited phenotypic susceptibility
NC[C@H]1O[C@H](O[C@H]2[C@H](O)[C@@H](O[C@H]3O[C@H](CO)[C@@H](O)[C@H](N)[C@H]3O)[C@H](N)C[C@@H]2N)[C@H](N)C[C@@H]1O [Tobramycin] | 45 | 55 | –
CO/N=C(\C(=O)N[C@@H]1C(=O)N2C(C(=O)O)=C(CSc3nc(=O)c(=O)[nH]n3C)CS[C@H]12)c1csc(N)n1 [Ceftriaxone] | 8 | 92 | –
C[C@H]1COc2c(N3CCN(C)CC3)c(F)cc3c(=O)c(C(=O)O)cn1c23 [Levofloxacin] | 19 | 81 | –
Ampicillin/Sulbactam | 16 | 84 | –
CC(C)(O/N=C(\C(=O)N[C@@H]1C(=O)N2C(C(=O)[O-])=C(C[n+]3ccccc3)CS[C@H]12)c1csc(N)n1)C(=O)O [Ceftazidime] | 9 | 91 | –
CO/N=C(\C(=O)N[C@@H]1C(=O)N2C(C(=O)O)=C(COC(N)=O)CS[C@H]12)c1ccco1 [Cefuroxime] | 7 | 93 | –
Trimethoprim/Sulfamethoxazole | 36 | 64 | –
Piperacillin/Tazobactam | 84 | 16 | –
CN(C)c1cc(NC(=O)CNC(C)(C)C)c(O)c2c1C[C@H]1C[C@H]3[C@H](N(C)C)C(O)=C(C(N)=O)C(=O)[C@@]3(O)C(O)=C1C2=O [Tigecycline] | 99.6 | 0.4 | the vast majority of isolates exhibited phenotypic susceptibility
C[C@H]1[C@H](NC(=O)/C(=N\OC(C)(C)C(=O)O)c2csc(N)n2)C(=O)N1S(=O)(=O)O [Aztreonam] | 9 | 91 | –
C[C@@H](O)[C@H]1C(=O)N2C(C(=O)O)=C(S[C@@H]3CN[C@H](C(=O)N(C)C)C3)[C@H](C)[C@H]12 [Meropenem] | 98 | 2 | the vast majority of isolates exhibited phenotypic susceptibility
CC1(C)S[C@@H]2[C@H](NC(=O)[C@H](N)c3ccccc3)C(=O)N2[C@H]1C(=O)O [Ampicillin] | 3 | 97 | the vast majority of isolates exhibited phenotypic resistance
CO[C@@]1(NC(=O)Cc2cccs2)C(=O)N2C(C(=O)O)=C(COC(N)=O)CS[C@@H]21 [Cefoxitin] | 79 | 21 | –
CCN1CCN(C(=O)N[C@@H](C(=O)N[C@@H]2C(=O)N3[C@@H]2SC(C)(C)[C@@H]3C(=O)O)c2ccccc2)C(=O)C1=O [Piperacillin] | 4 | 96 | the vast majority of isolates exhibited phenotypic resistance
CO/N=C(\C(=O)N[C@@H]1C(=O)N2C(C(=O)[O-])=C(C[N+]3(C)CCCC3)CS[C@H]12)c1csc(N)n1 [Cefepime] | 10 | 90 | –
C[C@@H](O)[C@H]1C(=O)N2C(C(=O)O)=C(SCCN=CN)C[C@H]12 [Imipenem] | 97 | 3 | –
Gentamicin | 61 | 39 | –

— US20170253917A1, “METHODS AND SYSTEMS FOR DETERMINING ANTIBIOTIC SUSCEPTIBILITY” (priority 2016, published 2017)
